We go through 20 molecules from doi:10.1101/2025.09.30.679521v1, “Crystallographic characterisation and development of bi-substrate inhibitors of coronavirus nsp14 methyltransferase” (biorxiv, 2025).

Like-named read-outs stand apart in the source and are kept apart here. Bounds are passed on as bounds.

One data set deals with HCoV-NL63 nsp14 (Human coronavirus NL63, UniProt P0C6X5). Description: RapidFire MS methyltransferase assay. Type of data set: biochemical. The text has this: RapidFire MS methyltransferase assay on HCoV-NL63 nsp14
The target in data set [1] is T1, human RNMT (Homo sapiens, UniProt O43148). As to the kind of experiment: RNMT methyltransferase assay (Gray et al.). Type of data set: biochemical. From the text: RNMT methyltransferase assay (Gray et al.) on human RNMT
A further data set deals with T2, HCoV-229E nsp14 (Human coronavirus 229E, UniProt P0C6X1).
T2 construct: gene rep
Description: RapidFire MS methyltransferase assay. In kind it is biochemical. From the text: RapidFire MS methyltransferase assay on HCoV-229E nsp14

Another data set has as its target T3, SARS-CoV-2 nsp14 (Severe acute respiratory syndrome coronavirus 2, UniProt P0DTD1).
T3 construct: gene rep
As to the kind of experiment: RapidFire MS methyltransferase assay. Type of data set: biochemical. From the text: RapidFire MS methyltransferase assay on SARS-CoV-2 nsp14

The next data set is described as follows: in vitro. The arrangement: mouse liver microsomal stability. Conditions: liver microsomes; Mouse liver microsomes; read-out: Mouse liver Mic T1/2 / min. The text has this:
We initiated our structure-activity relationship (SAR) studies by investigating various replacements for the benzothiazole group, compounds 2-17, Table 1. […] Relatively flat SAR is observed across this subset of compounds, indeed a 6,5 or 6,6 aromatic system with the appropriate connectivity as compound 1 display relatively similar potencies. […] In general, the mouse microsomal clearance was rather low for this set of molecules, with no significant instabilities introduced, with perhaps the exception of compound 4. With no significant advantages in either potency or mouse microsomal clearance (Table S2) identified for this subset, the benzothiazole was taken forward into subsequent SAR studies. Table 2. Enzymatic inhibition against SARS-CoV-2 nsp14, human RNMT, CHI-logD and mouse microsomal stability.

Data set [2] in a line: physchem.
Data set [3] is described as follows: physchem. The source holds these as a separate data set.
Data set [4] concerns the target T1, human RNMT. Description: biochemical. On the set-up: human RNMT methyltransferase inhibition.
Where [5] appears, read: SAM and RNA cap substrate at KM (SAM 1.0 µM), read-out: IC50.

T1 sequence (O43148 whole entry): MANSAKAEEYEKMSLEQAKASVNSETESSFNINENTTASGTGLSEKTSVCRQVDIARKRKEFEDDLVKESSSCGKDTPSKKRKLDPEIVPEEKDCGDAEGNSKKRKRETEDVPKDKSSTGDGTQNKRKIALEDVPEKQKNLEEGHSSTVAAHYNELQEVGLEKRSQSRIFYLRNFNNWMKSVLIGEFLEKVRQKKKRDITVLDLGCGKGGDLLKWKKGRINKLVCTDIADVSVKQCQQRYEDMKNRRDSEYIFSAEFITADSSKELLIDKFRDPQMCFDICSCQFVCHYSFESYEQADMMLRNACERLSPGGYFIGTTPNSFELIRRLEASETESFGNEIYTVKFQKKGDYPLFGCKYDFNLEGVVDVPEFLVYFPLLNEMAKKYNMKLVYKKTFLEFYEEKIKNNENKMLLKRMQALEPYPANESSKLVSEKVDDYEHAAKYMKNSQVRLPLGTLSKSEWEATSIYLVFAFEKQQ
T2 sequence (P0C6X1 5593-6110): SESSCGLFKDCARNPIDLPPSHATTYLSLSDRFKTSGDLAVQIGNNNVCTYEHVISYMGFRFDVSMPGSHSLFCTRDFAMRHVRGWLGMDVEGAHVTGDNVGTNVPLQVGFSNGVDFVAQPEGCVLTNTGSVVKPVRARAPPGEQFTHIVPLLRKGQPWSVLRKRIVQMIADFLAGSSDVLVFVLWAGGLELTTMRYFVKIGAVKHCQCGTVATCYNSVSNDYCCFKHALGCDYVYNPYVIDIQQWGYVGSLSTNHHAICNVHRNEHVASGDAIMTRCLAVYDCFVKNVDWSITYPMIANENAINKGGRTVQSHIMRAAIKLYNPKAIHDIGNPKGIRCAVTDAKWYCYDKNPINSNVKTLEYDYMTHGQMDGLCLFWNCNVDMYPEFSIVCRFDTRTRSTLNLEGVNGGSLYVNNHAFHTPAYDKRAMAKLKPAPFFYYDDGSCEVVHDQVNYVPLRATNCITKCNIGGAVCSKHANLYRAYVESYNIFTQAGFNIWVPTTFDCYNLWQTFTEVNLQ
Chain of HCoV-NL63 nsp14 (P0C6X5 5568-6085): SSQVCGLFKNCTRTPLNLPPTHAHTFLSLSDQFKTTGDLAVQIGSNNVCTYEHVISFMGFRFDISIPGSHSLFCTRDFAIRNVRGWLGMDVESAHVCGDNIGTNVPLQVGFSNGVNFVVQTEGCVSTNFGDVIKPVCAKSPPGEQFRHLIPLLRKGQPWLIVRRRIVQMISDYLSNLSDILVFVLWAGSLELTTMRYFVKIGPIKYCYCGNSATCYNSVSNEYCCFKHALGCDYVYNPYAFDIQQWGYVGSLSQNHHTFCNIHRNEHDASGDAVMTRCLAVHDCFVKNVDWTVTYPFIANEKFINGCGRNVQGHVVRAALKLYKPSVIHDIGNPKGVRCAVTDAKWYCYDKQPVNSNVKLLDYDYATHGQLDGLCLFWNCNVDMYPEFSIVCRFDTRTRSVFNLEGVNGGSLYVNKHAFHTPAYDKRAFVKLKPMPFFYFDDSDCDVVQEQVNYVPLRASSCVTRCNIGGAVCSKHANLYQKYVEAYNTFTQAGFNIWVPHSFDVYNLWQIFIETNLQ

As to `Nc1ncnc2c1ncn2[C@@H]1O[C@H](CSc2nc3ccccc3s2)[C@@H](O)[C@H]1O` [compound 1], the concentration for half-maximal inhibition (IC50) at HCoV-NL63 nsp14 (read-out: IC50) is 190 ± 30 nM; against human RNMT [1], above 100000 nM; at HCoV-229E nsp14 (read-out: IC50), 310 ± 8 nM; at SARS-CoV-2 nsp14 (read-out: IC50), 420 ± 300 nM. Besides, in the data set “in vitro”, the half-life is above 30 min. Also, the logD in the data set “physchem [2]” is 1.2.
On to `Cc1ccc2nc(SC[C@H]3O[C@@H](n4cnc5c(N)ncnc54)[C@H](O)[C@@H]3O)sc2c1` [compound 2], for which the half-maximal inhibitory concentration (IC50) at HCoV-NL63 nsp14 was 110 ± 20 nM; against human RNMT [1] it was above 100000 nM; against HCoV-229E nsp14, 410 ± 80 nM; on SARS-CoV-2 nsp14, 260 ± 70 nM. Also, the half-life in the data set “in vitro” is above 30 min. Moreover, in the data set “physchem [2]”, the logD is 1.6.
On to `Cc1ccc2sc(SC[C@H]3O[C@@H](n4cnc5c(N)ncnc54)[C@H](O)[C@@H]3O)nc2c1` [compound 3], for which the values for the half-maximal inhibitory concentration (IC50) against human RNMT [1] and against SARS-CoV-2 nsp14 were above 100000 nM and 1200 ± 150 nM, respectively. The half-life in “in vitro” was 25.7 min. The logD in the data set “physchem [2]” turned out to be 1.6.
Turning to `CCCCCCSC[C@H]1O[C@@H](n2cnc3c(N)ncnc32)[C@H](O)[C@@H]1O` [compound 4], the IC50 on HCoV-NL63 nsp14 was 3300 ± 300 nM; on human RNMT [1], above 100000 nM; against HCoV-229E nsp14 it was 9000 ± 1400 nM; against SARS-CoV-2 nsp14 it was 6100 ± 1100 nM. Besides, the half-life in the data set “in vitro” was 13.2 min. In addition, in “physchem [2]”, the pH-dependent lipophilicity (logD) was 2.
`CCNC(=O)NCCSC[C@H]1O[C@@H](n2cnc3c(N)ncnc32)[C@H](O)[C@@H]1O` [compound 5]: the half-inhibitory concentration (IC50) was above 100000 nM against human RNMT [1] and 1900 ± 300 nM on SARS-CoV-2 nsp14 (read-out: IC50). The half-life in the data set “in vitro” is above 30 min. Further, the logD in the data set “physchem [2]” was -0.2.
Consider `Nc1ncnc2c1ncn2[C@@H]1O[C@H](CSc2ccc3ccccc3c2)[C@@H](O)[C@H]1O` [compound 6], for which the IC50 on HCoV-NL63 nsp14 (read-out: IC50) is 230 ± 20 nM; against human RNMT [1] it was above 100000 nM; at HCoV-229E nsp14 (read-out: IC50) it was 470 ± 60 nM; at SARS-CoV-2 nsp14 (read-out: IC50), 310 ± 120 nM. Also, the half-life in the data set “in vitro” is 26.9 min. For the same molecule, the logD in “physchem [2]” was determined as 1.8.
Consider `Nc1ncnc2c1ncn2[C@@H]1O[C@H](CSc2ccc3ccccc3n2)[C@@H](O)[C@H]1O` [compound 7], for which the IC50 on HCoV-NL63 nsp14 (read-out: IC50) was 240 ± 80 nM; on human RNMT [1], above 100000 nM; at HCoV-229E nsp14 (read-out: IC50) it was 550 ± 80 nM; on SARS-CoV-2 nsp14 (read-out: IC50), 330 ± 90 nM. Also, in the data set “in vitro”, the half-life was above 30 min. The molecule further showed a logD in “physchem [2]” of 1.3.
On to `Cc1ccc2nc(SC[C@H]3O[C@@H](n4cnc5c(N)ncnc54)[C@H](O)[C@@H]3O)ccc2c1` [compound 8], for which the IC50 was 520 ± 10 nM against HCoV-NL63 nsp14, above 100000 nM at human RNMT [1], 1900 ± 100 nM on HCoV-229E nsp14 and 1100 ± 70 nM against SARS-CoV-2 nsp14. For the same molecule, the half-life in “in vitro” is above 30 min. Further, the pH-dependent lipophilicity (logD) in the data set “physchem [2]” was determined as 1.7.
`Cc1ccc2ccc(SC[C@H]3O[C@@H](n4cnc5c(N)ncnc54)[C@H](O)[C@@H]3O)nc2c1` [compound 9]: the concentration for half-maximal inhibition (IC50) against HCoV-NL63 nsp14 was determined as 500 ± 110 nM; against human RNMT [1], 70500 nM; on HCoV-229E nsp14, 1400 ± 100 nM; on SARS-CoV-2 nsp14, 390 ± 60 nM. In the data set “in vitro”, the half-life is above 30 min. Besides, in the data set “physchem [2]”, the logD worked out at 1.7.
Turning to `Nc1ncnc2c1ncn2[C@@H]1O[C@H](CSc2ccc3cccnc3c2)[C@@H](O)[C@H]1O` [compound 10], the IC50 at HCoV-NL63 nsp14 (read-out: IC50) was 170 ± 40 nM; against human RNMT [1], above 100000 nM; on HCoV-229E nsp14 (read-out: IC50) it was 580 ± 100 nM; at SARS-CoV-2 nsp14 (read-out: IC50), 360 ± 110 nM. Besides, the half-life in the data set “in vitro” was above 30 min. Moreover, the logD in the data set “physchem [2]” was found to be 0.6.
Take `Nc1ncnc2c1ncn2[C@@H]1O[C@H](CSc2nccs2)[C@@H](O)[C@H]1O` [compound 11]: the 50% inhibitory concentration (IC50) was above 50000 nM at HCoV-NL63 nsp14 (read-out: IC50), above 100000 nM against human RNMT [1], above 50000 nM on HCoV-229E nsp14 (read-out: IC50) and above 100000 nM at SARS-CoV-2 nsp14 (read-out: IC50). In addition, the pH-dependent lipophilicity (logD) in “physchem [2]” was determined as 0.3.
`Nc1ncnc2c1ncn2[C@@H]1O[C@H](CSc2cccn3cncc23)[C@@H](O)[C@H]1O` [compound 12]: the half-inhibitory concentration (IC50) on HCoV-NL63 nsp14 (read-out: IC50) stood at 9500 ± 2300 nM; against human RNMT [1] it was 9300 nM; at HCoV-229E nsp14 (read-out: IC50), 790 ± 60 nM; at SARS-CoV-2 nsp14 (read-out: IC50) it was 15000 ± 12000 nM. In the data set “physchem [2]”, this molecule registered a logD of 0.3.
For the molecule `CNc1ncnc2c1ncn2[C@@H]1O[C@H](CSc2nc3ccccc3s2)[C@@H](O)[C@H]1O` [compound 18], on SARS-CoV-2 nsp14 (read-out: IC50), the concentration for half-maximal inhibition (IC50) was determined as 2100 ± 200 nM. The molecule also registered a pH-dependent lipophilicity (logD) in “physchem [3]” of 1.3.
Turning to `CN(C)c1ncnc2c1ncn2[C@@H]1O[C@H](CSc2nc3ccccc3s2)[C@@H](O)[C@H]1O` [compound 19], at SARS-CoV-2 nsp14 (setting [5]), the IC50 is above 100000 nM. Moreover, the log distribution coefficient (logD) in “physchem [3]” was determined as 1.8.
With `OC1C(CSc2nc3ccccc3s2)OC(n2cnc3c(NC4CCCC4)ncnc32)C1O` (centres unmarked) [compound 20], on SARS-CoV-2 nsp14 (setting [5]), the 50% inhibitory concentration (IC50) is above 100000 nM. In the data set “physchem [3]”, the log distribution coefficient (logD) stood at 2.5.
Consider `CC(C)Nc1ncnc2c1ncn2[C@@H]1O[C@H](CSc2nc3ccccc3s2)[C@@H](O)[C@H]1O` [compound 21], for which the concentration for half-maximal inhibition (IC50) at SARS-CoV-2 nsp14 (read-out: IC50) and against human RNMT [4] was above 100000 nM each time. For the same molecule, the logD in “physchem [3]” was determined as 2.1.
As to `O[C@@H]1[C@H](O)[C@@H](CSc2nc3ccccc3s2)O[C@H]1n1cnc2c(NC3COC3)ncnc21` [compound 22], the log distribution coefficient (logD) in “physchem [3]” was 1.4.
With `Nc1ncnc2c1ncn2[C@@H]1O[C@H](COc2nc3ccccc3s2)[C@@H](O)[C@H]1O` [compound 23], the IC50 on SARS-CoV-2 nsp14 (read-out: IC50) and against human RNMT [4] was above 100000 nM throughout. Moreover, the logD in the data set “physchem [3]” is 0.5.
In the case of `Nc1ncnc2c1ncn2[C@@H]1O[C@H](CNc2nc3ccccc3s2)[C@@H](O)[C@H]1O` [compound 24], the IC50 against human RNMT [1] was 54600 nM; on SARS-CoV-2 nsp14 (read-out: IC50), above 100000 nM. This molecule had a logD in “physchem [3]” of 0.7.
As for `Nc1ncnc2c1ncn2[C@@H]1O[C@H](CCc2nc3ccccc3s2)[C@@H](O)[C@H]1O` [compound 25], the 50% inhibitory concentration (IC50) at SARS-CoV-2 nsp14 (read-out: IC50) was 310 ± 70 nM; against human RNMT [4], above 100000 nM. Moreover, the half-life in “in vitro” is above 30 min. Also, in “physchem [3]”, the logD came to 1.
